Results published in patent US9018414B2, “Substituted 3-phenylpropionic acids and the use thereof” (Bayer Intellectual Property GmbH, priority 2009, dated 2015).
pEC50: −log10 of the molar value.

Key:
[1] = target: T1, soluble guanylate cyclase (sGC) (Rattus norvegicus, UniProt P20595); experiment: Stimulation of sGC enzyme activity (PPi detection, luciferase luminescence); assay type: biochemical; conditions: for pEC50: EC50 = concentration at 50% of maximum efficacy, read-out: Activating action at the sGC enzyme in vitro, EC50; for Activating action at the sGC enzyme in vitro, MEC: MEC = minimal effective concentration
T1 construct: made in house; host or cells: Sf9 insect cells (baculovirus)
T1 sequence (P20595 1-619): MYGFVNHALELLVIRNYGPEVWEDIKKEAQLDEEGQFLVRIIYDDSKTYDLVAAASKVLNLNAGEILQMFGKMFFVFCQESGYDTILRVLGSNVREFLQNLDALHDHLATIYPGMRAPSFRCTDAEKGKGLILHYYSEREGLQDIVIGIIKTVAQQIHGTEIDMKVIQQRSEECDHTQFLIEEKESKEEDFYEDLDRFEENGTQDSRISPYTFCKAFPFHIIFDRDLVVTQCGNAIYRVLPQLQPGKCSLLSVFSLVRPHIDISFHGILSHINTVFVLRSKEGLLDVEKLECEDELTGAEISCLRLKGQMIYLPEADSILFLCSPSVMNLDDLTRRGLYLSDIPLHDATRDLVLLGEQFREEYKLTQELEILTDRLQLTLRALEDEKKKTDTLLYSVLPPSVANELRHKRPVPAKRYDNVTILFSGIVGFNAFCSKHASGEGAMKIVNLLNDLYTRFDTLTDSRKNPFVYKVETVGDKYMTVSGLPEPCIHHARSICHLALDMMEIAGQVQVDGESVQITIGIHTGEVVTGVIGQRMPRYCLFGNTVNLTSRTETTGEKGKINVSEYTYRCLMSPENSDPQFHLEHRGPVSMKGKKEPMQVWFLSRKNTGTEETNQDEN
T1 sequence (P19686 1-690 partner): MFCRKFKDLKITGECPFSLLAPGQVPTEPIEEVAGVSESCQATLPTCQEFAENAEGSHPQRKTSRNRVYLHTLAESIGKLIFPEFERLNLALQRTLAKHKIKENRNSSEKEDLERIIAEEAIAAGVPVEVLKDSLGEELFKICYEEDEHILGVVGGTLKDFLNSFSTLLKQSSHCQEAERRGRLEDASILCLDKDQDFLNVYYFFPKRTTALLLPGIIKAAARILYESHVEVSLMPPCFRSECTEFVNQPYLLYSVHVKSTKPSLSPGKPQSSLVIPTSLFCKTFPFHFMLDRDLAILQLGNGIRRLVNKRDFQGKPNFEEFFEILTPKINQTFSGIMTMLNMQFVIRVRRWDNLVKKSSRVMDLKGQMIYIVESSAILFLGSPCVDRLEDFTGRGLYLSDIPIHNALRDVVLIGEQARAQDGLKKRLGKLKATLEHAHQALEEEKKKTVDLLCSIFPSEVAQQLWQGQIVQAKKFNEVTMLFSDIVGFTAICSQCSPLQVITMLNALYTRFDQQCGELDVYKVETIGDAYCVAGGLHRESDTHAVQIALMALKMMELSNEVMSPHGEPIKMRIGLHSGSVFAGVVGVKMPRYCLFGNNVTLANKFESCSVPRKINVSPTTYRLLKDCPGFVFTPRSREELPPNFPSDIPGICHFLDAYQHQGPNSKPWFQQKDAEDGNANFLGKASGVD
Experimental: Soluble guanylate cyclase (sGC) converts on stimulation GTP into cGMP and pyrophosphate (PPi). PPi is detected with the aid of the assay described below. The signal produced in the assay increases as the reaction progresses and serves as a measure of the sGC enzyme activity under the given stimulation.
To carry out the assay, 29 μl of enzyme solution [0-10 nM soluble guanylate cyclase (prepared according to Hönicka et al., J. Mol. Med. 77, 14-23 (1999)) in 50 mM TEA, 2 mM MgCl2, 0.1% BSA (fraction V), 0.005% Brij®, pH 7.5] are initially introduced into a microplate, and 1 μl of the substance to be tested (as a serially diluted solution in DMSO) is added. The mixture is incubated at room temperature for 10 min. Then 20 μl of detection mix [1.2 nM Firefly Luciferase (Photinus pyralis luciferase, Promega), 29 μM dehydroluciferin (prepared according to Bitler & McElroy, Arch. Biochem. Biophys. 72, 358 (1957)), 122 μM luciferin (Promega), 153 μM ATP (Sigma) and 0.4 mM DTT (Sigma) in 50 mM TEA, 2 mM MgCl2, 0.1% BSA (fraction V), 0.005% Brij®, pH 7.5] are added. The enzyme reaction is started by adding 20 μl of substrate solution [1.25 mM guanosine 5′-triphosphate (Sigma) in 50 mM TEA, 2 mM MgCl2, 0.1% BSA (fraction V), 0.005% Brij®, pH 7.5] and measured continuously in a luminometer. The extent of the stimulation by the substance to be tested can be determined relative to the signal of the unstimulated reaction.
The activation of haem-free guanylate cyclase is examined by addition of 25 μM of 1H-1,2,4-oxadiazolo[4,3-a]quinoxalin-1-one (ODQ) to the enzyme solution and subsequent incubation for 30 minutes, and compared to the stimulation of the native enzyme.

[2] = test system: recombinant guanylate cyclase reporter cell line; experiment: Action at recombinant guanylate cyclase reporter cell line (CHO reporter cell); assay type: cell-based; conditions: MEC = minimal effective concentration; read-out: sGC-activating activity in the CHO reporter cell in vitro, MEC
Experimental: The cellular action of the compounds according to the invention is determined at a recombinant guanylate cyclase reporter cell line, as described in F. Wunder et al., Anal. Biochem. 339, 104-112 (2005).

[3] = target: T2, haem-containing recombinant soluble guanylate cyclase (sGC) (Rattus norvegicus, UniProt P20595); experiment: Stimulation of recombinant soluble guanylate cyclase (sGC) in vitro, haem-containing enzyme; assay type: biochemical; conditions: for Effect of combination with the NO donor DEA/NO on sGC stimulation: haem-containing sGC
T2 construct: made in house; host or cells: Sf9 insect cells (baculovirus)
T2 sequence (P20595 1-619): T1 sequence (P20595 1-619)
T2 sequence (P19686 1-690 partner): T1 sequence (P19686 1-690 partner)
Experimental: (§1) Investigations on the stimulation of recombinant soluble guanylate cyclase (sGC) by the compounds according to the invention with and without sodium nitroprusside, and with and without the haem-dependent sGC inhibitor 1H-1,2,4-oxadiazolo-(4,3a)-quinoxalin-1-one (ODQ) are carried out by the method described in detail in the following reference: M. Hoenicka, E. M. Becker, H. Apeler, T. Sirichoke, H. Schroeder, R. Gerzer and J.-P. Stasch, “Purified soluble guanylyl cyclase expressed in a baculovirus/Sf9 system: Stimulation by YC-1, nitric oxide, and […]”, J. Mol. Med. 77 (1999), 14-23. The haem-free guanylate cyclase is obtained by adding Tween 20 to the sample buffer (0.5% in the final concentration).
(§2) The activation of sGC by a test substance is reported as x-fold stimulation of the basal activity.

[4] = target: T3, haem-free recombinant soluble guanylate cyclase (sGC) (Rattus norvegicus, UniProt P20595); experiment: Stimulation of recombinant soluble guanylate cyclase (sGC) in vitro, haem-free enzyme; assay type: biochemical
T3 construct: made in house; host or cells: Sf9 insect cells (baculovirus)
T3 sequence (P20595 1-619): T1 sequence (P20595 1-619)
T3 sequence (P19686 1-690 partner): T1 sequence (P19686 1-690 partner)
Experimental: as §1, §2

SMILES | pEC50 [1] | Activating action at the sGC enzyme in vitro, MEC [1] | minimal effective concentration [2] | Stimulation (x-fold) of recombinant sGC, haem-containing sGC, +0.01 μM DEA/NO ([3]; 0.01 μM test compound) | Stimulation (x-fold) of recombinant sGC, haem-containing sGC, +10 μM ODQ ([3]; 0.01 μM test compound) | Stimulation (x-fold) of recombinant sGC, haem-containing sGC, basal ([3]; 0.01 μM test compound) | Stimulation (x-fold) of recombinant sGC, haem-containing sGC, +0.01 μM DEA/NO ([3]; 0.1 μM test compound) | Stimulation (x-fold) of recombinant sGC, haem-containing sGC, +10 μM ODQ ([3]; 0.1 μM test compound) | Stimulation (x-fold) of recombinant sGC, haem-containing sGC, basal ([3]; 0.1 μM test compound) | Stimulation (x-fold) of recombinant sGC, haem-containing sGC, +0.01 μM DEA/NO ([3]; 1.0 μM test compound) | Stimulation (x-fold) of recombinant sGC, haem-containing sGC, +10 μM ODQ ([3]; 1.0 μM test compound) | Stimulation (x-fold) of recombinant sGC, haem-containing sGC, basal ([3]; 1.0 μM test compound) | Stimulation (x-fold) of recombinant sGC, haem-containing sGC, +0.01 μM DEA/NO ([3]; 10 μM test compound) | Stimulation (x-fold) of recombinant sGC, haem-containing sGC, +10 μM ODQ ([3]; 10 μM test compound) | Stimulation (x-fold) of recombinant sGC, haem-containing sGC, basal ([3]; 10 μM test compound) | Stimulation (x-fold) of recombinant sGC, haem-containing sGC, +0.01 μM DEA/NO ([3]; 100 μM test compound) | Stimulation (x-fold) of recombinant sGC, haem-containing sGC, +10 μM ODQ ([3]; 100 μM test compound) | Stimulation (x-fold) of recombinant sGC, haem-containing sGC, basal ([3]; 100 μM test compound) | Effect of combination with the NO donor DEA/NO on sGC stimulation [3] | Stimulation (x-fold) of recombinant sGC, haem-free sGC, basal ([4]; 0.01 μM test compound) | other results
C[C@H]([C@H](C(=O)Nc1cc(CCC(=O)O)ccc1Cl)c1ccc(Cl)cc1)C(F)(F)F [Example 15, (+)-3-(4-Chloro-3-{[(2S,3R)-2-(4-chlorophenyl)-4,4,4-trifluoro-3-methylbutanoyl]amino}phenyl)-propanoic acid] | 6.54 | 10 nM | 0.01 µM | 5.9 ± 0.7 x-fold | 4.6 ± 0.8 x-fold | 1.1 ± 0.1 x-fold | 7.4 ± 0.8 x-fold | 4.5 ± 0.6 x-fold | 1.0 ± 0.1 x-fold | 8.5 ± 0.7 x-fold | 4.8 ± 0.8 x-fold | 0.9 ± 0.1 x-fold | 11.5 ± 0.9 x-fold | 16.3 ± 1.3 x-fold | 3.1 ± 0.3 x-fold | 45.9 ± 3.1 x-fold | 97.3 ± 7.7 x-fold | 31.6 ± 2.6 x-fold | no synergistic effect | 1.7 ± 0.3 x-fold | Stimulation (x-fold) of recombinant sGC, haem-free sGC, basal ([4]; 0.1 μM test compound): 1.8 ± 0.2 x-fold; Stimulation (x-fold) of recombinant sGC, haem-free sGC, basal ([4]; 1.0 μM test compound): 3.0 ± 0.5 x-fold; Stimulation (x-fold) of recombinant sGC, haem-free sGC, basal ([4]; 10 μM test compound): 17.9 ± 3.1 x-fold; Stimulation (x-fold) of recombinant sGC, haem-free sGC, basal ([4]; 100 μM test compound): 40.3 ± 6.6 x-fold
C[C@H]([C@H](C(=O)Nc1cc(C[C@H](C)C(=O)O)ccc1Cl)c1ccc(Cl)cc1)C(F)(F)F [Example 17, (+)-(2S)-3-(4-Chloro-3-{[(2S,3R)-2-(4-chlorophenyl)-4,4,4-trifluoro-3-methylbutanoyl]amino}-phenyl)-2-methylpropanoic acid] | 6.89 | 7 nM | 0.0048 µM | 9.6 ± 0.8 x-fold | 4.9 ± 1.2 x-fold | 0.7 ± 0.2 x-fold | 8.8 ± 1.2 x-fold | 5.3 ± 1.3 x-fold | 0.6 ± 0.1 x-fold | 9.8 ± 1.2 x-fold | 4.5 ± 1.1 x-fold | 0.6 ± 0.1 x-fold | 10.7 ± 1.0 x-fold | 8.3 ± 1.4 x-fold | 1.8 ± 0.3 x-fold | 11.4 ± 1.2 x-fold | 15.0 ± 2.0 x-fold | 4.9 ± 0.7 x-fold | no synergistic effect | 1.7 ± 0.2 x-fold | Stimulation (x-fold) of recombinant sGC, haem-free sGC, basal ([4]; 0.1 μM test compound): 2.0 ± 0.3 x-fold; Stimulation (x-fold) of recombinant sGC, haem-free sGC, basal ([4]; 1.0 μM test compound): 4.1 ± 0.3 x-fold; Stimulation (x-fold) of recombinant sGC, haem-free sGC, basal ([4]; 10 μM test compound): 22.9 ± 1.8 x-fold; Stimulation (x-fold) of recombinant sGC, haem-free sGC, basal ([4]; 100 μM test compound): 33.5 ± 3.3 x-fold
